{"source": "patent US20020179457A1", "about": "“Electrochemical method for high-throughput screening of minute quantities of candidate compounds” (priority 2001, published 2002)", "key": {"horseradish peroxidase": {"molecular_target": "horseradish peroxidase (Armoracia rusticana, UniProt P00433)", "sequence (P00433 31-338)": "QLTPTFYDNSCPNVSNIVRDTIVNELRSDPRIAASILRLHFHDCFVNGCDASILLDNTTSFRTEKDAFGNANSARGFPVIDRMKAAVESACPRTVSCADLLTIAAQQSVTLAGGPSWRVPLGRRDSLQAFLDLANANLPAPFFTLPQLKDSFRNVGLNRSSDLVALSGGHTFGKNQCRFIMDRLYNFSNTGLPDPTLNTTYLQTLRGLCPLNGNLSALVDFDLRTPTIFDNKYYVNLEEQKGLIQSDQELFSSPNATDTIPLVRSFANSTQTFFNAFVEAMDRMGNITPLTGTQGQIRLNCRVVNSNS", "details": "pH 7", "experimental": "A system with a total volume of 0.1 mL comprising a flow cell is constructed. The cell comprises a detection chamber having an interior volume of 5 μl, an inlet for directing a stream of liquid into the detection chamber, and an outlet for directing liquid out of the detection chamber. The detection chamber contains a working electrode for assessing the capability of candidate compounds for inhibiting the catalytic activity of horseradish peroxidase, a carbon paste counter electrode, and downstream from the working electrode, near the outlet, a standard calomel reference electrode. The working electrode is formed by co-depositing on a conductive substrate horseradish peroxidase and a redox polymer formed of poly(4-vinyl pyridine) partially reacted with 2-bromoethylamine and partially complexed with [Os(bpy)2Cl]^+/2+ where bpy=2,2′-bipyridine complex of osmium (2+/3+) and poly(4-vinyl pyridine). The horseradish peroxidase and the redox polymer are crosslinked on the substrate by periodate oxidation, whereby aldehyde functions are produced in the oligosaccharides of the peroxidase, and by adding PEGDGE, polyethylene glycol diglycidyl ether.\nAn aqueous pH 7 phosphate buffer comprises 0.15 M NaCl and 1 mM hydrogen peroxide. Three liquid samples are prepared, each sample 0.1 mL. […]"}, "acetylcholine esterase": {"molecular_target": "acetylcholine esterase (Homo sapiens, UniProt P22303)", "sequence (P22303 32-614)": "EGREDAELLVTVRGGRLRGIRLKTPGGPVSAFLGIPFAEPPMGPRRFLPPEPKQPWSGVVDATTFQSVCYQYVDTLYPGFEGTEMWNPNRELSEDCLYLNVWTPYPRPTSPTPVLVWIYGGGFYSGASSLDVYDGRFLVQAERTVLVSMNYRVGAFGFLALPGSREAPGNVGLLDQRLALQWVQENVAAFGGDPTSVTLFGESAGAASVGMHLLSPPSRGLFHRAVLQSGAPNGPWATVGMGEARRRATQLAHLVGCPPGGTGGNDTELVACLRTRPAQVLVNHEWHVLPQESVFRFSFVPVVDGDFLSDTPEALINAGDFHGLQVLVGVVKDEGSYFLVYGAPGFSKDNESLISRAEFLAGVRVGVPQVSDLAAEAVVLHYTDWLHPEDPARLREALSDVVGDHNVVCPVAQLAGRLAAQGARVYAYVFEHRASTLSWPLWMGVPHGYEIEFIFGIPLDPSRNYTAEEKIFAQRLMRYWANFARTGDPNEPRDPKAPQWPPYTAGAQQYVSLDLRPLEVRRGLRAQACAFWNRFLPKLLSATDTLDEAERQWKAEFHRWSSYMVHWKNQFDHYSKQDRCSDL", "assay": "electrochemical flow cell assay of inhibition of acetylcholine esterase (esterase/choline oxidase/peroxidase cascade)", "type": "biochemical", "experimental": "An aqueous carrier liquid is prepared in an oxygen-containing atmosphere to comprise the buffer of Example 1 and acetylcholine, the total volume of the liquid being less than 0.1 mL. Two samples are prepared. The first sample contains only the buffered acetylcholine solution; the second sample contains the liquid carrier and 100 pg malathion, an insecticide.\nThe first sample is introduced into the flow cell through the inlet, and the working electrode is poised at +0.1 V versus the standard calomel electrode. The acetylcholine in the solution is hydrolyzed by the esterase on the electrode, producing choline, which, in turn, combines with dissolved oxygen to form hydrogen peroxide. The hydrogen peroxide is electroreduced to water. An electric current is produced between the electrodes as a result. The current produced provides a baseline against which current produced as a result of enzymatic inhibition is measured."}}}
{"smiles": "[N-]=[N+]=[N-].[Na+]", "note": "[azide, sodium azide]", "values": [{"measurement": "current passing from one electrode to another, versus baseline (inhibition of catalytic activity of horseradish peroxidase)", "setting": "horseradish peroxidase", "value": "decreased"}]}
{"smiles": "CCOC(=O)CC(SP(=S)(OC)OC)C(=O)OCC", "note": "(centres unmarked) [malathion]", "values": [{"measurement": "current passing from one electrode to another, versus baseline (inhibition of catalytic activity of acetylcholine esterase)", "setting": "acetylcholine esterase", "value": "decreased"}]}
